From PMC8587863, “Discovery of Novel Delta Opioid Receptor (DOR) Inverse Agonist and Irreversible (Non-Competitive) Antagonists” (Molecules, 2021)

What was measured:
[1] = biological target: T1, human DOR (delta opioid receptor) (Homo sapiens, UniProt P41143); test: […]-GTPgammaS coupling, membranes; type: biochemical; details: antagonist mode against SNC80 curve; 30 °C, 1 h, 40 uM GDP; proposed covalent / irreversible
T1 construct: gene OPRD1; full-length receptor expressed in CHO-K1 cells

[2] = biological target: T1, human DOR (delta opioid receptor); test: competition radioligand binding, 3H-diprenorphine, membranes
[3] = biological target: T2, human kappa opioid receptor (KOR) (Homo sapiens, UniProt P41145); test: as above
T2 construct: gene OPRK1; full-length receptor expressed in CHO cells; membranes

[4] = biological target: T3, human mu opioid receptor (MOR) (Homo sapiens, UniProt P35372); test: as above; details: room temperature, 1 h, one-site fit; unreliable
T3 construct: gene OPRM1; full-length receptor expressed in CHO cells; membranes

[5] = biological target: T1, human DOR (delta opioid receptor); test: cAMP accumulation, live DOR-CHO cells; type: cell-based

| SMILES | % SNC80 efficacy (EMAX) at 1 nM [1] | Ki [2] | Ki [3] | KI [4] | EC50 [5] |
| --- | --- | --- | --- | --- | --- |
| Oc1ccc2c3c1O[C@H]1c4[nH]c5ccc(/C=C/c6ccccn6)cc5c4C[C@@]4(O)[C@@H](C2)N(CC2CC2)CC[C@]314 [SRI-9342, (4bS,8R,8aS,14bR)-7-(Cyclopropylmethyl)-11-((E)-2-(pyridin-2-yl)vinyl)-5,6,7,8,14,14b-hexahydro-4,8-methanobenzofuro [2,3-a]pyrido[4,3-b]carbazole-1,8a(9H)-diol] | 84% | – | – | – | – |
| O=C(C1CC1)N1CC[C@]23c4c5ccc(O)c4O[C@H]2c2ncc(-c4ccc(Cl)cc4)cc2C[C@@]3(O)[C@H]1C5 [SRI-45128, ((4bS,8R,8aS,13bR)-11-(4-Chlorophenyl)-1,8a-dihydroxy-5,6,8,8a,9,13b-hexahydro-7H-4,8-methanobenzofuro[3,2-h]pyrido[3,4-g]quinolin-7-yl)(cyclopropyl)methanone] | – | 24 ± 2 nM | 2500 ± 510 nM | > 3,333 nM | 770 nM |
| O=C(C1CC1)N1CC[C@]23c4c5ccc(O)c4O[C@H]2c2[nH]c4ccccc4c2C[C@@]3(O)[C@H]1C5 [SYK-623, Cyclopropyl((4bS,8R,8aS,14bR)-1,8a-dihydroxy-5,6,8a,9,14,14b-hexahydro-4,8-methanobenzofuro[2,3−a]pyrido [4,3−b]carbazol-7(8H)-yl)methanone] | – | 11 ± 1 nM | 2000 ± 290 nM | > 3,333 nM | 265 nM |
